Biological target: T1, recombinant DDB1-CRBN (Homo sapiens, UniProt Q96SW2)
T1 construct: His; made in house; host or cells: High Five insect cells (baculovirus made and propagated in SF9 cells)
Experiment: Fluorescence polarization-based competition assay for CRBN binding
Settings: not given
Protocol: Prior to screening the compound library in the isogenic CPA, we assessed their CRBN binding affinities using a fluorescence-polarization-based competition assay with recombinant DDB1-CRBN and the fluorescent tracer 16 (Figure S2). […] We also assessed the cytotoxicity of the CRBN binders in RKO wild-type (WT) cells to determine the appropriate treatment concentration. […]
Fluorescence Polarization‐based competition assay
Fluorescence Polarization assays were performed in 384‐well, Low Volume, Black, Round Bottom, Polystyrene Nonbinding surface Microplates (Corning, #4514). The test compounds were incubated with 200 nM CRBN‐DDB1 and 20 nM Pomalidomide‐fluorescein tracer 16 in 50 mM Tris‐HCl pH 7.5, 200 mM NaCl, 1 mM DTT, 0.02% Triton X‐ 100, and 0.1 µg/µL Bovine Serum Albumin (Sigma Aldrich, #A7030) in a total volume of 25 µL. Fluorescence polarization values were determined with a PerkinElmer Envision reader with FITC FP dual mirror and FITC FP 480 excitation filter and FITC FP 535 emission filters. Fluorescence polarization values of a 10x serial dilution (10 nM to 100 µM) of the test compounds were determined in triplicates. EC50 values were calculated with GraphPad Prism software (version 10.0.2) with a non‐linear fit function (4PL sigmoidal curve fit) adjusting the bottom constrain to the FP value of free tracer. […]

| SMILES | EC50 |
| --- | --- |
| O=C1CCC(c2ccccc2OS(=O)(=O)F)C(=O)N1 (stereo not drawn) [FL7] | 72.4 µM |

Same assay, conditions: 200 nM CRBN-DDB1, 20 nM pomalidomide-fluorescein tracer 16, triplicates; read-out: FP_CRBN_binding: CRBN binding affinity, EC50

| SMILES | EC50 |
| --- | --- |
| C[C@@H]1C[C@H](C)CN(S(=O)(=O)Oc2ccc(Nc3cccc4c3C(=O)N(C3CCC(=O)NC3=O)C4=O)cc2)C1 (stereo partly drawn) [FL4-6] | 3.65 µM |
| CC1(C)CN(S(=O)(=O)Oc2cccc(C3CCC(=O)NC3=O)c2)CC2(CCOC2)O1 (stereo not drawn) [FL6-8] | 1.34 µM |
| CC1(C)CN(S(=O)(=O)Oc2cccc(C3CCC(=O)NC3=O)c2)CCS1(=O)=O (stereo not drawn) [FL6-7] | 0.743 µM |
| CN(Cc1ncnn1C)S(=O)(=O)Oc1cccc(C2CCC(=O)NC2=O)c1 (stereo not drawn) [FL6-11] | 0.887 µM |
| CC1(C)CN(S(=O)(=O)Oc2cccc(Nc3ccc4c(c3)C(=O)N(C3CCC(=O)NC3=O)C4=O)c2)CCS1(=O)=O (stereo not drawn) [FL1-7] | 0.522 µM |
| CN(C1CC1)S(=O)(=O)Oc1ccc(C2CCC(=O)NC2=O)cc1 (stereo not drawn) [FL5-21] | 0.899 µM |
| CN(Cc1ncc(C2CC2)o1)S(=O)(=O)Oc1ccc(C2CCC(=O)NC2=O)cc1 (stereo not drawn) [FL5-14] | 0.6 µM |
| O=C1CCC(c2ccc(OS(=O)(=O)N3CCOCC3)cc2)C(=O)N1 (stereo not drawn) [FL5-5] | 0.829 µM |
| O=C1CCC(c2cccc(OS(=O)(=O)N3C[C@@H](F)[C@H](F)C3)c2)C(=O)N1 (stereo partly drawn) [FL6-10] | 1.14 µM |
| CC1c2cccn2CCN1S(=O)(=O)Oc1ccc(C2CCC(=O)NC2=O)cc1 (stereo not drawn) [FL5-19] | 0.94 µM |
| CN(C1CC1)S(=O)(=O)Oc1cccc(Nc2ccc3c(c2)C(=O)N(C2CCC(=O)NC2=O)C3=O)c1 (stereo not drawn) [FL1-21] | 1.05 µM |
| O=C1CCC(c2cccc(OS(=O)(=O)N3CC4(CNC(=O)N4)C3)c2)C(=O)N1 (stereo not drawn) [FL6-9] | 0.713 µM |
| CN(Cc1ccc2c(c1)OCO2)S(=O)(=O)Oc1cccc(C2CCC(=O)NC2=O)c1 (stereo not drawn) [FL6-20] | 0.622 µM |
| Cc1cn2c(n1)CN(S(=O)(=O)Oc1cccc(Nc3cccc4c3C(=O)N(C3CCC(=O)NC3=O)C4=O)c1)CC2 (stereo not drawn) [FL3-13] | 0.472 µM |
| CC(O)CN(C)S(=O)(=O)Oc1ccc(Nc2cccc3c2C(=O)N(C2CCC(=O)NC2=O)C3=O)cc1 (stereo not drawn) [FL4-1] | 0.37 µM |
| O=C1CCC(N2C(=O)c3cccc(Nc4cccc(OS(=O)(=O)N5CC(CCO)C5)c4)c3C2=O)C(=O)N1 (stereo not drawn) [FL3-2] | 0.408 µM |
| CN(C)c1ncc(CN(C)S(=O)(=O)Oc2ccc(Nc3ccc4c(c3)C(=O)N(C3CCC(=O)NC3=O)C4=O)cc2)cn1 (stereo not drawn) [FL2-18] | 0.872 µM |
| Cc1cn2c(n1)CN(S(=O)(=O)Oc1cccc(Nc3ccc4c(c3)C(=O)N(C3CCC(=O)NC3=O)C4=O)c1)CC2 (stereo not drawn) [FL1-13] | 0.482 µM |
| CN(C)c1ncc(CN(C)S(=O)(=O)Oc2ccc(Nc3cccc4c3C(=O)N(C3CCC(=O)NC3=O)C4=O)cc2)cn1 (stereo not drawn) [FL4-18] | 1.61 µM |
| CN(Cc1ccc2[nH]nnc2c1)S(=O)(=O)Oc1cccc(Nc2cccc3c2C(=O)N(C2CCC(=O)NC2=O)C3=O)c1 (stereo not drawn) [FL3-15] | 0.99 µM |
| CN(Cc1ncnn1C)S(=O)(=O)Oc1ccc(Nc2cccc3c2C(=O)N(C2CCC(=O)NC2=O)C3=O)cc1 (stereo not drawn) [FL4-11] | 0.538 µM |

| SMILES | EC50 |
| --- | --- |
| CN(Cc1ncnn1C)S(=O)(=O)Oc1ccc(C2CCC(=O)NC2=O)cc1 (stereo not drawn) [FL5-11] | 1.27 µM |
| CN(C1CC1)S(=O)(=O)Oc1ccc(Nc2cccc3c2C(=O)N(C2CCC(=O)NC2=O)C3=O)cc1 (stereo not drawn) [FL4-21] | 1.08 µM |
| O=C1CCC(c2cccc(OS(=O)(=O)N3CCC(c4ccncc4)CC3)c2)C(=O)N1 (stereo not drawn) [FL6-16] | 0.645 µM |
| CN(Cc1ccc2[nH]nnc2c1)S(=O)(=O)Oc1ccc(Nc2cccc3c2C(=O)N(C2CCC(=O)NC2=O)C3=O)cc1 (stereo not drawn) [FL4-15] | 2.13 µM |
| CN(Cc1ncc(C2CC2)o1)S(=O)(=O)Oc1cccc(C2CCC(=O)NC2=O)c1 (stereo not drawn) [FL6-14] | 0.837 µM |
| CC1(C)CN(S(=O)(=O)Oc2cccc(Nc3cccc4c3C(=O)N(C3CCC(=O)NC3=O)C4=O)c2)CCS1(=O)=O (stereo not drawn) [FL3-7] | 0.348 µM |
| CC1c2cccn2CCN1S(=O)(=O)Oc1ccc(Nc2ccc3c(c2)C(=O)N(C2CCC(=O)NC2=O)C3=O)cc1 (stereo not drawn) [FL2-19] | 1.05 µM |
| O=C1CCC(N2C(=O)c3cccc(Nc4ccc(OS(=O)(=O)N5CCC(c6ccncc6)CC5)cc4)c3C2=O)C(=O)N1 (stereo not drawn) [FL4-16] | 0.971 µM |
| O=C1CCC(N2C(=O)c3cccc(Nc4ccc(OS(=O)(=O)N5CCOCC5)cc4)c3C2=O)C(=O)N1 (stereo not drawn) [FL4-5] | 0.652 µM |
| O=C1CCC(N2C(=O)c3cccc(Nc4ccc(OS(=O)(=O)N5CCC(c6ccco6)C5)cc4)c3C2=O)C(=O)N1 (stereo not drawn) [FL4-12] | 4.55 µM |
| O=C1CCC(c2cccc(OS(=O)(=O)N3CCC(c4ccco4)C3)c2)C(=O)N1 (stereo not drawn) [FL6-12] | 0.57 µM |
| CC(O)CN(C)S(=O)(=O)Oc1cccc(Nc2cccc3c2C(=O)N(C2CCC(=O)NC2=O)C3=O)c1 (stereo not drawn) [FL3-1] | 0.301 µM |
| O=C1CCC(N2C(=O)c3ccc(Nc4cccc(OS(=O)(=O)N5C[C@@H](F)[C@H](F)C5)c4)cc3C2=O)C(=O)N1 (stereo partly drawn) [FL1-10] | 0.607 µM |
| CN(Cc1ccc2[nH]nnc2c1)S(=O)(=O)Oc1cccc(C2CCC(=O)NC2=O)c1 (stereo not drawn) [FL6-15] | 0.52 µM |
| CN(Cc1ncnn1C)S(=O)(=O)Oc1cccc(Nc2ccc3c(c2)C(=O)N(C2CCC(=O)NC2=O)C3=O)c1 (stereo not drawn) [FL1-11] | 0.509 µM |
| O=C1CCC(N2C(=O)c3cccc(Nc4ccc(OS(=O)(=O)N5C[C@@H](F)[C@H](F)C5)cc4)c3C2=O)C(=O)N1 (stereo partly drawn) [FL4-10] | 0.83 µM |
| Cc1cn2c(n1)CN(S(=O)(=O)Oc1cccc(C3CCC(=O)NC3=O)c1)CC2 (stereo not drawn) [FL6-13] | 1.08 µM |
| C[C@@H]1C[C@H](C)CN(S(=O)(=O)Oc2ccc(Nc3ccc4c(c3)C(=O)N(C3CCC(=O)NC3=O)C4=O)cc2)C1 (stereo partly drawn) [FL2-6] | 4.22 µM |
| Cc1cn2c(n1)CN(S(=O)(=O)Oc1ccc(C3CCC(=O)NC3=O)cc1)CC2 (stereo not drawn) [FL5-13] | 0.771 µM |
| O=C1CCC(c2cccc(OS(=O)(=O)N3CCOCC3)c2)C(=O)N1 (stereo not drawn) [FL6-5] | 0.679 µM |
| O=C1CCC(N2C(=O)c3cccc(Nc4cccc(OS(=O)(=O)N5CCOCC5)c4)c3C2=O)C(=O)N1 (stereo not drawn) [FL3-5] | 0.214 µM |

| SMILES | EC50 |
| --- | --- |
| CN(Cc1ccc2[nH]nnc2c1)S(=O)(=O)Oc1ccc(Nc2ccc3c(c2)C(=O)N(C2CCC(=O)NC2=O)C3=O)cc1 (stereo not drawn) [FL2-15] | 1.65 µM |
| C[C@@H](O)CN(C)S(=O)(=O)Oc1cccc(C2CCC(=O)NC2=O)c1 (stereo partly drawn) [FL6-1] | 0.584 µM |
| CN(Cc1ncnn1C)S(=O)(=O)Oc1ccc(Nc2ccc3c(c2)C(=O)N(C2CCC(=O)NC2=O)C3=O)cc1 (stereo not drawn) [FL2-11] | 0.617 µM |
| CC1(C)CN(S(=O)(=O)Oc2ccc(Nc3ccc4c(c3)C(=O)N(C3CCC(=O)NC3=O)C4=O)cc2)CC2(CCOC2)O1 (stereo not drawn) [FL2-8] | 2.59 µM |
| O=C1CCC(N2C(=O)c3cccc(Nc4cccc(OS(=O)(=O)N5C[C@@H](F)[C@H](F)C5)c4)c3C2=O)C(=O)N1 (stereo partly drawn) [FL3-10] | 0.582 µM |
| O=C1CCC(N2C(=O)c3ccc(Nc4ccc(OS(=O)(=O)N5CC6(CNC(=O)N6)C5)cc4)cc3C2=O)C(=O)N1 (stereo not drawn) [FL2-9] | 0.414 µM |
| CC1(C)CN(S(=O)(=O)Oc2cccc(Nc3ccc4c(c3)C(=O)N(C3CCC(=O)NC3=O)C4=O)c2)CC2(CCOC2)O1 (stereo not drawn) [FL1-8] | 0.93 µM |
| Cc1cn2c(n1)CN(S(=O)(=O)Oc1ccc(Nc3cccc4c3C(=O)N(C3CCC(=O)NC3=O)C4=O)cc1)CC2 (stereo not drawn) [FL4-13] | 0.463 µM |
| Cc1cn2c(n1)CN(S(=O)(=O)Oc1ccc(Nc3ccc4c(c3)C(=O)N(C3CCC(=O)NC3=O)C4=O)cc1)CC2 (stereo not drawn) [FL2-13] | 0.526 µM |
| CC1c2cc(F)ccc2CCN1S(=O)(=O)Oc1cccc(Nc2cccc3c2C(=O)N(C2CCC(=O)NC2=O)C3=O)c1 (stereo not drawn) [FL3-17] | 1.31 µM |
| CC1c2cc(F)ccc2CCN1S(=O)(=O)Oc1cccc(Nc2ccc3c(c2)C(=O)N(C2CCC(=O)NC2=O)C3=O)c1 (stereo not drawn) [FL1-17] | 1.84 µM |
| CN(C)c1ncc(CN(C)S(=O)(=O)Oc2cccc(Nc3cccc4c3C(=O)N(C3CCC(=O)NC3=O)C4=O)c2)cn1 (stereo not drawn) [FL3-18] | 0.676 µM |
| CC(C)(O)C1CCN(S(=O)(=O)Oc2ccc(Nc3ccc4c(c3)C(=O)N(C3CCC(=O)NC3=O)C4=O)cc2)C1 (stereo not drawn) [FL2-4] | 0.77 µM |
| CN(Cc1ccc2c(c1)OCO2)S(=O)(=O)Oc1ccc(C2CCC(=O)NC2=O)cc1 (stereo not drawn) [FL5-20] | 0.775 µM |
| CC(C)(O)C1CCN(S(=O)(=O)Oc2ccc(Nc3cccc4c3C(=O)N(C3CCC(=O)NC3=O)C4=O)cc2)C1 (stereo not drawn) [FL4-4] | 0.688 µM |
| O=C1CCC(c2ccc(OS(=O)(=O)N3C[C@@H](F)[C@H](F)C3)cc2)C(=O)N1 (stereo partly drawn) [FL5-10] | 0.893 µM |
| CN(Cc1ccc2c(c1)OCO2)S(=O)(=O)Oc1cccc(Nc2ccc3c(c2)C(=O)N(C2CCC(=O)NC2=O)C3=O)c1 (stereo not drawn) [FL1-20] | 1.47 µM |
| O=C1CCC(N2C(=O)c3cccc(Nc4ccc(OS(=O)(=O)N5CC(CCO)C5)cc4)c3C2=O)C(=O)N1 (stereo not drawn) [FL4-2] | 0.557 µM |
| O=C1CCC(c2ccc(OS(=O)(=O)N3CC4(CNC(=O)N4)C3)cc2)C(=O)N1 (stereo not drawn) [FL5-9] | 1.05 µM |
| CC1c2cccn2CCN1S(=O)(=O)Oc1ccc(Nc2cccc3c2C(=O)N(C2CCC(=O)NC2=O)C3=O)cc1 (stereo not drawn) [FL4-19] | 0.687 µM |

— publication PMC10764104, “Discovery of Molecular Glue Degraders via Isogenic Morphological Profiling” (ACS Chemical Biology, 2023)
